Reference: patent EP4559911A1, “NOVEL HETEROCYCLIC COMPOUND AND PHARMACEUTICAL COMPOSITION FOR INHIBITING AUTOTAXIN COMPRISING THE SAME” (Nextgen Bioscience Co., Ltd., priority 2022, dated 2024)

Each compound was assayed against human Autotaxin protein (Homo sapiens, UniProt Q13822) (assay: Evaluation of the inhibitory activity against human Autotaxin protein (18:1 LysoPC substrate, choline assay kit, absorbance at 570 nm)). Details: compound at 500nM; 2 hours at 37 °C; % inhibition = (1 - absorbance test group / absorbance control group) X 100.
Assay type: biochemical
Method: Solutions of each compound synthesized (80 uM, 100% dimethyl sulfoxide) were sequentially diluted 5-fold with dimethyl sulfoxide to prepare 6 concentrations. Each concentration of the compound was diluted 2-fold with 1x test buffer (50 mM Tris-Cl (pH 8.0), 5 mM KCl, 1 mM CaCl2, 1 mM MgCl2, 140 mM NaCl, deionized water, 1 mg/mL BSA), and 1 uL (1.25% dimethyl sulfoxide) of this diluted mixture was dispensed into each well of a 96-well clear round-bottom plate. 9 uL of 1x test buffer was added, and 20 uL of 240 nM human autotaxin protein (buffer: 50 mM Tris-HCl, pH 8.0, with 150 mM sodium chloride and 20% glycerol) was added. 10 uL of sonicated 360 uM 18:1 LysoPC (diluted with 1x assay buffer) was added. The reaction was performed for 2 hours in a shaking incubator at 37 °C, and a secondary reaction mixture (choline assay kit, KA1662) (65 uL of 1x assay buffer: 1 uL of choline oxidase: 1 uL of dye probe) was prepared. 60 uL of the secondary reaction mixture was added to the plate where the reaction was performed, and incubated for 30 minutes in a shaker. The absorbance value was measured at a wavelength of 570 nm using a SpectraMax iD3 microplate reader. The percentage inhibition activity value (% inhibition) was calculated by the formula: (1 - absorbance value test group / absorbance value control group) X 100.
For O=C(O)C1CN(c2nnc(-c3cnc(NC4Cc5cc(F)c(F)cc5C4)nc3)o2)C1 [Example 50, 1-(5-(2-((5,6-difluoro-2,3-dihydro-1H-inden-2-yl)amino)pyrimidin-5-yl)-1,3,4-oxadiazol-2-yl)azetidine-3-carboxylic acid], the inhibition at 0.5 µM was 14%. With CC1(c2c[nH]nn2)CN(c2nnc(-c3cnc(NC4Cc5cc(F)c(F)cc5C4)nc3)o2)C1 [Example 51, N-(5,6-difluoro-2,3-dihydro-1H-inden-2-yl)-5-(5-(3-methyl-3-(1H-1,2,3-triazol-4-yl)azetidin-1-yl)-1,3,4-oxadiazol-2-yl)pyrimidin-2-amine] the inhibition at 0.5 µM was 91.8%. COC(=O)CC1CN(c2nnc(-c3cnc(NC4Cc5cc(F)c(F)cc5C4)nc3)o2)C1 [Example 52, Methyl 2-(1-(5-(2-((5,6-difluoro-2,3-dihydro-1H-inden-2-yl)amino)pyrimidin-5-yl)-1,3,4-oxadiazol-2-yl)azetidin-3-yl)acetate] showed an inhibition at 0.5 µM of 21.9%. For O=C(O)CC1CN(c2nnc(-c3cnc(NC4Cc5cc(F)c(F)cc5C4)nc3)o2)C1 [Example 53, 2-(1-(5-(2-((5,6-difluoro-2,3-dihydro-1H-inden-2-yl)amino)pyrimidin-5-yl)-1,3,4-oxadiazol-2-yl)azetidin-3-yl)acetic acid], the inhibition at 0.5 µM was 24.7%. For Fc1cc2c(cc1F)CC(Nc1ccc(-c3nnc(N4CC(c5c[nH]nn5)C4)o3)cn1)C2 [Example 54, 5-(5-(3-(1H-1,2,3-triazol-4-yl)azetidin-1-yl)-1,3,4-oxadiazol-2-yl)-N-(5,6-difluoro-2,3-dihydro-1H-inden-2-yl)pyridin-2-amine], the inhibition at 0.5 µM was 23.4%. CS(=O)(=O)OC1CN(c2nnc(-c3cnc(NC4Cc5cc(F)c(F)cc5C4)nc3)o2)C1 [Example 55, 1-(5-(2-((5,6-difluoro-2,3-dihydro-1H-inden-2-yl)amino)pyrimidin-5-yl)-1,3,4-oxadiazol-2-yl)azetidin-3-yl methanesulfonate] showed an inhibition at 0.5 µM of 17.6%. Work on Fc1cc2c(cc1F)CC(Nc1ncc(-c3nnc(N4CC(F)(c5c[nH]nn5)C4)o3)cn1)C2 [Example 56, N-(5,6-difluoro-2,3-dihydro-1H-inden-2-yl)-5-(5-(3-fluoro-3-(1H-1,2,3-triazol-4-yl)azetidin-1-yl)-1,3,4-oxadiazol-2-yl)pyrimidin-2-amine] yielded an inhibition at 0.5 µM of 85.2%. With N#CC1CN(c2nnc(-c3cnc(NC4Cc5cc(F)c(F)cc5C4)nc3)o2)C1 [Example 57, 1-(5-(2-((5,6-difluoro-2,3-dihydro-1H-inden-2-yl)amino)pyrimidin-5-yl)-1,3,4-oxadiazol-2-yl)azetidine-3-carbonitrile] the inhibition at 0.5 µM was 8.6%. Fc1cc2c(cc1F)CC(Nc1ncc(-c3nnc(N4CC(c5nnc(C(F)(F)F)o5)C4)o3)cn1)C2 [Example 58, N-(5,6-difluoro-2,3-dihydro-1H-inden-2-yl)-5-(5-(3-(5-(trifluoromethyl)-1,3,4-oxadiazol-2-yl)azetidin-1-yl)-1,3,4-oxadiazol-2-yl)pyrimidin-2-amine] showed an inhibition at 0.5 µM of 1%. Work on Clc1cc(Cl)cc(CCNc2ncc(-c3nnc(N4CC(c5c[nH]nn5)C4)o3)cn2)c1 [Example 59, 5-(5-(3-(1H-1,2,3-triazol-4-yl)azetidin-1-yl)-1,3,4-oxadiazol-2-yl)-N-(3,5-dichlorophenethyl)pyrimidin-2-amine] yielded an inhibition at 0.5 µM of 49.5%. Fc1cc2c(cc1F)CC(Nc1cnc(-c3nnc(N4CC(c5c[nH]nn5)C4)o3)cn1)C2 [Example 60, 5-(5-(3-(1H-1,2,3-triazol-4-yl)azetidin-1-yl)-1,3,4-oxadiazol-2-yl)-N-(5,6-difluoro-2,3-dihydro-1H-inden-2-yl)pyrazin-2-amine] gave an inhibition at 0.5 µM of 1%. Fc1cc2c(cc1F)CC(Nc1ncc(-c3nnc(N4CC(c5nnc(C(F)F)o5)C4)o3)cn1)C2 [Example 61, N-(5,6-difluoro-2,3-dihydro-1H-inden-2-yl)-5-(5-(3-(5-(difluoromethyl)-1,3,4-oxadiazol-2-yl)azetidin-1-yl)-1,3,4-oxadiazol-2-yl)pyrimidin-2-amine] gave an inhibition at 0.5 µM of 1%. With CC(C)(C)C(=O)OCn1cc(C2CN(c3nnc(-c4cnc(NC5Cc6ccc(Br)cc6C5)nc4)o3)C2)nn1 (stereo not shown) [Example 62, (4-(1-(5-(2-((5-bromo-2,3-dihydro-1H-inden-2-yl)amino)pyrimidin-5-yl)-1,3,4-oxadiazol-2-yl)azetidin-3-yl)-1H-1,2,3-triazol-1-yl)methyl pivalate] the inhibition at 0.5 µM was 1%. Work on CC(C)(C)C(=O)OCn1cc(C2CN(c3nnc(-c4cnc(NC5Cc6ccc(F)cc6C5)nc4)o3)C2)nn1 (stereo not shown) [Example 63, (4-(1-(5-(2-((5-fluoro-2,3-dihydro-1H-inden-2-yl)amino)pyrimidin-5-yl)-1,3,4-oxadiazol-2-yl)azetidin-3-yl)-1H-1,2,3-triazol-1-yl)methyl pivalate] yielded an inhibition at 0.5 µM of 1%. Compound Brc1ccc2c(c1)CC(Nc1ncc(-c3nnc(N4CC(c5c[nH]nn5)C4)o3)cn1)C2 (stereo not shown) [Example 64, 5-(5-(3-(1H-1,2,3-triazol-4-yl)azetidin-1-yl)-1,3,4-oxadiazol-2-yl)-N-(5-bromo-2,3-dihydro-1H-inden-2-yl)pyrimidin-2-amine] has an inhibition at 0.5 µM of 100%. Compound Fc1ccc2c(c1)CC(Nc1ncc(-c3nnc(N4CC(c5c[nH]nn5)C4)o3)cn1)C2 (stereo not shown) [Example 65, 5-(5-(3-(1H-1,2,3-triazol-4-yl)azetidin-1-yl)-1,3,4-oxadiazol-2-yl)-N-(5-fluoro-2,3-dihydro-1H-inden-2-yl)pyrimidin-2-amine] has an inhibition at 0.5 µM of 100%. For O=c1[nH]nc(C2CN(c3nnc(-c4cnc(NC5Cc6cc(F)c(F)cc6C5)nc4)o3)C2)o1 [Example 66, 5-(1-(5-(2-((5,6-difluoro-2,3-dihydro-1H-inden-2-yl)amino)pyrimidin-5-yl)-1,3,4-oxadiazol-2-yl)azetidin-3-yl)-1,3,4-oxadiazol-2(3H)-one], the inhibition at 0.5 µM was 35.8%. In the case of Cc1nc(NC2Cc3cc(F)c(F)cc3C2)ncc1-c1nnc(N2CC(c3c[nH]nn3)C2)o1 [Example 67, 5-(5-(3-(1H-1,2,3-triazol-4-yl)azetidin-1-yl)-1,3,4-oxadiazol-2-yl)-N-(5,6-difluoro-2,3-dihydro-1H-inden-2-yl)-4-methylpyrimidin-2-amine], the inhibition at 0.5 µM was 74.7%. Fc1cc2c(cc1F)CC(Nc1ncc(-c3nnc(N4CC(c5nnn[nH]5)C4)o3)cn1)C2 [Example 68, 5-(5-(3-(1H-tetrazol-5-yl)azetidin-1-yl)-1,3,4-oxadiazol-2-yl)-N-(5,6-difluoro-2,3-dihydro-1H-inden-2-yl)pyrimidin-2-amine] was tested, and the inhibition at 0.5 µM was 17.6%. Work on CC1(c2c[nH]nn2)CN(c2nnc(-c3cnc(NC4Cc5ccccc5C4)nc3)o2)C1 [Example 69, N-(2,3-dihydro-1H-inden-2-yl)-5-(5-(3-methyl-3-(1H-1,2,3-triazol-4-yl)azetidin-1-yl)-1,3,4-oxadiazol-2-yl)pyrimidin-2-amine] yielded an inhibition at 0.5 µM of 95.4%. Compound COc1ccc2c(c1)CC(Nc1ncc(-c3nnc(N4CC(c5cn(COC(=O)C(C)(C)C)nn5)C4)o3)cn1)C2 (stereo not shown) [Example 70, (4-(1-(5-(2-((5-methoxy-2,3-dihydro-1H-inden-2-yl)amino)pyrimidin-5-yl)-1,3,4-oxadiazol-2-yl)azetidin-3-yl)-1H-1,2,3-triazol-1-yl)methyl pivalate] has an inhibition at 0.5 µM of 9.6%. In the case of COc1ccc2c(c1)CC(Nc1ncc(-c3nnc(N4CC(c5c[nH]nn5)C4)o3)cn1)C2 (stereo not shown) [Example 71, 5-(5-(3-(1H-1,2,3-triazol-4-yl)azetidin-1-yl)-1,3,4-oxadiazol-2-yl)-N-(5-methoxy-2,3-dihydro-1H-inden-2-yl)pyrimidin-2-amine], the inhibition at 0.5 µM was 95.5%.
